Source: patent publication US20230329236A1, “HERBICIDAL PYRIMIDINE DERIVATIVES” (MoA Technology Limited, priority 2020, published 2023)

Experiments:
Settings in all cases: 336 h, Table 3, post-emergence, 14±1 days post application
[1] = system: Lolium multiflorum (LOLMU); assay: Post-emergence glasshouse test, visual injury, LOLMU; format: in vivo
Description: (§1) Seeds of a variety of test species are grown in a sandy loam soil mixture, Lolium multiflorum (LOLMU), Amaranthus retroflexus (AMARE), Echinochloa crus-gaffi (ECHCG), Veronica persica (VERPE), Glycine max (GLXMA), Oryza sativa (ORYSA), Zea mays (ZEAMX), spring wheat (TRZAS), Ipomoea hederacea (IPOHE), Ipomoea purpurea (PHBPU), Stellaria media (STEME), Solanum nigrum (SOLNI), Digitaria sanguinalis (DIGSA), Setaria italica (SETIT), Alopecurus myosuroides (ALOMY) and Avena fatua (AVEFA).
(§2) After sowing, at growth stage BBCH 12-14 (post-emergence), the plants are sprayed with an aqueous spray solution derived from the formulation of the technical active ingredient in acetone/water (50:50) solution containing 0.5% Tween 20 (polyoxyethlyene sorbitan monolaureate, CAS RN 9005-64-5). The test compounds are applied at the required concentration of active ingredient in g/ha. The test plants are then grown in a glasshouse under controlled environmental conditions and watered regularly as required. After 14±1 days post application (for post-emergence test), the test is evaluated by assessing the percentage damage caused to the plants in comparison with the untreated plots. The biological activities for post-emergence testing are shown below (Table 3 and Table 4) as a % visual injury.

[2] = system: Echinochloa crus-gaffi (ECHCG); assay: Post-emergence glasshouse test, visual injury, ECHCG; format: in vivo, Echinochloa crus-galli
Description: as §1, §2

Veronica persica (VERPE) = assay: Post-emergence glasshouse test, visual injury, VERPE; format: in vivo
Description: as §1, §2

[3] = system: Amaranthus retroflexus (AMARE); assay: Post-emergence glasshouse test, visual injury, AMARE; format: in vivo
Description: as §1, §2

SMILES	pest or weed control at 125 g/ha [1]	pest or weed control at 125 g/ha [2]	pest or weed control at 125 g/ha (Veronica persica (VERPE))	pest or weed control at 125 g/ha [3]	pest or weed control at 500 g/ha [1]	pest or weed control at 500 g/ha [2]	pest or weed control at 500 g/ha (Veronica persica (VERPE))	pest or weed control at 500 g/ha [3]	also measured
Cc1cc(-c2cnc(NC(C)C)nc2C(F)(F)F)on1 [Compound 115]	0%	0%	60%	20%					
Cc1cc(-c2cnc(NCc3ccncc3F)nc2C(C)C)on1 [Compound 95]									pest or weed control at 62 g/ha ([1]; 62 g/ha): 30%; pest or weed control at 62 g/ha ([2]; 62 g/ha): 60%; pest or weed control at 62 g/ha (Veronica persica (VERPE); 62 g/ha): 60%; pest or weed control at 62 g/ha ([3]; 62 g/ha): 30%
CC(=O)N1CCN(c2ncc(-c3cc(C)no3)c(C3CC3)n2)CC1 [Compound 50]					0%	50%	0%	60%	
CCc1nc(NC2CCCC2)ncc1-c1cc(C)no1 [Compound 103]	20%	30%	60%	70%					
Cc1cc(-c2cnc(N3CCCCC3)nc2C2CC2)on1 [Compound 31]					0%	30%	0%	70%	
Cc1cc(-c2cnc(N)nc2-c2ccc(C)o2)on1 [Compound 2, 5-(3-methyl-1,2-oxazol-5-yl)-4-(5-methylfuran-2-yl)pyrimidin-2-amine]					40%	10%	0%	30%	
Cc1cc(-c2cnc(NC3CCCC3)nc2C2CCC2)on1 [Compound 104]	0%	0%	60%	40%					
Cc1cc(-c2cnc(NCc3ccc(F)cc3)nc2C2CCC2)on1 [Compound 105]	0%	0%	50%	30%					
CCNc1ncc(-c2cc(C)no2)c(C(C)C)n1 [Compound 11]									pest or weed control at 250 g/ha [1]: 0%; pest or weed control at 250 g/ha [2]: 80%; pest or weed control at 250 g/ha (Veronica persica (VERPE)): 70%; pest or weed control at 250 g/ha [3]: 100%
Cc1cc(-c2cnc(N3CCSCC3)nc2-c2ccc(C)o2)on1 [Compound 90]	0%	30%	40%	30%					
Cc1cc(-c2cnc(NCc3ccccc3F)nc2C(F)(F)F)on1 [Compound 113]	0%	20%	0%	30%					
COCCNc1ncc(-c2cc(C)no2)c(-c2ccncc2)n1 [Compound 66]					60%	20%	70%	70%	
Cc1cc(-c2cnc(NCc3cccs3)nc2C2CC2)on1 [Compound 80]					30%	80%	60%	60%	
Cc1cc(-c2cnc(N3CCCCC3)nc2C(C)(C)C)on1 [Compound 48]					70%	10%	0%	20%	
Cc1cc(-c2cnc(N3CCCC3)nc2-c2ccc(C)o2)on1 [Compound 58]					20%	10%	0%	0%	
COCCCNc1ncc(-c2cc(C)no2)c(-c2ccc(C)o2)n1 [Compound 27]					0%	20%	50%	70%	

SMILES	pest or weed control at 125 g/ha [1]	pest or weed control at 125 g/ha [2]	pest or weed control at 125 g/ha (Veronica persica (VERPE))	pest or weed control at 125 g/ha [3]	pest or weed control at 500 g/ha [1]	pest or weed control at 500 g/ha [2]	pest or weed control at 500 g/ha (Veronica persica (VERPE))	pest or weed control at 500 g/ha [3]	also measured
Cc1cc(-c2cnc(N3CCN(c4ncccn4)CC3)nc2C(C)C)on1 [Compound 70]					0%	20%	0%	80%	
Cc1cc(-c2cnc(N3CCN(S(=O)(=O)N(C)C)CC3)nc2C2CC2)on1 [Compound 53]					20%	50%	0%	20%	
Cc1cc(-c2cnc(NC3CCC3)nc2C(F)(F)F)on1 [Compound 110]	40%	0%	0%	0%					
Cc1cc(-c2cnc(NCc3ccncc3)nc2-c2ccc(C)o2)on1 [Compound 21]					0%	20%	90%	50%	
Cc1cc(-c2cnc(N3CCC(C(N)=O)CC3)nc2C2CC2)on1 [Compound 64]					30%	60%	0%	60%	
CCc1nc(NCc2ccc(F)cc2)ncc1-c1cc(C)no1 [Compound 106]	0%	30%	95%	90%					
Cc1cc(-c2cnc(N3CCCC3)nc2C(C)C)on1 [Compound 29]					0%	50%	50%	0%	
Cc1cc(-c2cnc(NCc3cccc(F)c3)nc2C(C)C)on1 [Compound 17]									pest or weed control at 1000 g/ha ([1]; 1000 g/ha): 0%; pest or weed control at 1000 g/ha ([2]; 1000 g/ha): 80%; pest or weed control at 1000 g/ha (Veronica persica (VERPE); 1000 g/ha): 100%; pest or weed control at 1000 g/ha ([3]; 1000 g/ha): 100%
Cc1cc(-c2cnc(NC3CCCc4sc(Cl)cc43)nc2C(C)C)on1 (centres unmarked) [Compound 3]	0%	60%	10%	60%					
Cc1cc(-c2cnc(NC3CC3)nc2-c2ccc(C)o2)on1 [Compound 44]					30%	20%	20%	70%	
Cc1cc(-c2cnc(NC3CCc4sc(Cl)cc43)nc2C(C)C)on1 (centres unmarked) [Compound 4]	0%	50%	98%	95%					
Cc1cc(-c2cnc(N(C)C)nc2C(C)C)on1 [Compound 82]									pest or weed control at 250 g/ha [1]: 30%; pest or weed control at 250 g/ha [2]: 70%; pest or weed control at 250 g/ha (Veronica persica (VERPE)): 20%; pest or weed control at 250 g/ha [3]: 0%
Cc1cc(-c2cnc(N3CCOCC3)nc2-c2ccc(C)o2)on1 [Compound 72]					0%	30%	0%	90%	
Cc1cc(-c2cnc(NCc3ccccn3)nc2C(C)C)on1 [Compound 39]					0%	20%	80%	70%	
Cc1cc(-c2cnc(NCCn3nccc3C)nc2C(C)C)on1 [Compound 41]					30%	60%	50%	95%	
Cc1cc(-c2cnc(N3CCC(O)C(C)C3)nc2-c2ccc(C)o2)on1 (centres unmarked) [Compound 36]					0%	30%	0%	30%	
